{"source": "patent US11026953B2", "about": "“3-beta-hydroxy-5-alpha-pregnan-20-one for use in treatment of essential tremor” (ASARINA PHARMA AB, priority 2017, dated 2021)", "key": {"[1]": {"details": "essential tremor, cited from earlier work"}, "[2]": {"biological_target": "T1, human alpha1,beta2,gamma2 GABAA receptor (Homo sapiens, UniProt P14867+P47870)", "T1 construct": "expressed in transfected cells", "T1 sequence (P14867 28-456)": "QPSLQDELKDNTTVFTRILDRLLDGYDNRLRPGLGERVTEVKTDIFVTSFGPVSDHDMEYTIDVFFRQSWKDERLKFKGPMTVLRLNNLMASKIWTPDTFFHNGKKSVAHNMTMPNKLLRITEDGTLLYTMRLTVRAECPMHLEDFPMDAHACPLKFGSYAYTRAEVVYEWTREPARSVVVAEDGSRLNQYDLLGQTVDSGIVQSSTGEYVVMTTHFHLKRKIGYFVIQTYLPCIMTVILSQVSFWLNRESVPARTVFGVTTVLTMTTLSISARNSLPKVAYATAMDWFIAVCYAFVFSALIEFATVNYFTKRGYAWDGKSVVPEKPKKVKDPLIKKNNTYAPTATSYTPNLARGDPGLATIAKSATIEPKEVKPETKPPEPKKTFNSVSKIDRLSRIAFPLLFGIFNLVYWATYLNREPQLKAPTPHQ", "T1 sequence (P47870 26-512)": "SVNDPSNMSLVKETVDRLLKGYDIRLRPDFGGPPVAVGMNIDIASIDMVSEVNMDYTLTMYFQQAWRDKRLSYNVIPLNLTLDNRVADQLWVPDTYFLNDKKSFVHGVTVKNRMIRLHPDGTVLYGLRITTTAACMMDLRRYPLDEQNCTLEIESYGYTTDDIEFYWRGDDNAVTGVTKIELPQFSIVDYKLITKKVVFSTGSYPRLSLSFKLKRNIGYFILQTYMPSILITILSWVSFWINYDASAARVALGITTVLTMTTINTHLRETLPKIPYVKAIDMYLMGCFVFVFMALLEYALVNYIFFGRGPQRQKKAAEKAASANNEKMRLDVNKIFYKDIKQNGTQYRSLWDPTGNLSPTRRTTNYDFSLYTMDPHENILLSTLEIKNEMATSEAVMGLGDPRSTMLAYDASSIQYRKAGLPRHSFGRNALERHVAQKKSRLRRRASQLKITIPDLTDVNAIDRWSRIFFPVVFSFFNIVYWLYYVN", "T1 sequence (P18507 40-475 partner)": "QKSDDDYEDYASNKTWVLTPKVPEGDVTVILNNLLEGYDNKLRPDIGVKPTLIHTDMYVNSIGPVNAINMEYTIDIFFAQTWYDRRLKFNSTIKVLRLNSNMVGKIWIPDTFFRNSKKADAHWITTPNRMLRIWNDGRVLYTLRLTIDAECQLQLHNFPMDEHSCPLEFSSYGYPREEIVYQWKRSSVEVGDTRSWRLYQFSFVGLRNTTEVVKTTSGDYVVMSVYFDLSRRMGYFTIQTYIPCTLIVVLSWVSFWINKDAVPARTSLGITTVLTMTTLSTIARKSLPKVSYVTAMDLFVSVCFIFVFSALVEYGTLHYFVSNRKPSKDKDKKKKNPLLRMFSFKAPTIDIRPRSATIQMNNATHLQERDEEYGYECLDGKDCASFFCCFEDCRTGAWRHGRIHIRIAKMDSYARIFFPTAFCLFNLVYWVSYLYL", "experiment": "Patch-clamp (Dynaflow) current response in HEK-293 cells expressing the human alpha1,beta2,gamma2 GABAA receptor", "type": "cell-based", "details": "for Androstandiol effect by itself (baseline shift), current response in absence of GABA: no GABA; for Antagonism of THDOC enhanced GABA effect, single dose: 1 μM UC1010 + 30 μM GABA + 200 nM THDOC; for Imax, maximal antagonism of THDOC effect in concentration-dependent experiment: 0.1-1 μM UC1010 + 30 μM GABA + 200 nM THDOC, max reached at 1 μM", "description": "(§1) Assay for testing GABAA receptor effects of 3beta-hydroxy-5alpha-pregnan-20-one on human alpha1,beta,gamma and alpha4,beta,delta GABAA receptor subtype.\n(§2) In these tests the protocol was optimized to be similar to the physiological conditions in the synaptic cleft.\n(§3) Cell culture: HEK-293 cells, permanently transfected with the human alpha1,beta,gamma and alpha4,beta,delta GABAA receptor subtypes, were seeded at a density of 3×10^4/25 cm^2 in cellbind culture flask. The transfected cells were used for patch-clamp experiments 3 days after seeding. When using the cells for patch-clamp experiments the cells were washed twice with oxygen-bubbled extracellular (EC) solution (see below). About 5 mL EC was then added and the cells were kept in the incubator for about 15 minutes. After 15 minutes the cells came loose from the bottom of the flask and were separated by carefully sucking couple of times with a Pasteur pipette.\n(§4) DYNAFLOW™ system with Resolve chip was used for patch-clamp experiments: The electrophysiological recordings from HEK-293 cells were performed under voltage-clamp conditions using patch-clamp technique and the DYNAFLOW™ system (DYNAFLOW™ Pro II Platform Zeiss Axiovert 25; Cellectricon AB, Sweden) with Resolve chips as application system.\n(§5) Patch pipettes were pulled from borosilicate glass and polished to a resistance 2-5 MΩ when filled with suitable intracellular solution (IC) (pH was adjusted to 7.2) and immersed in bath solution (extracellular, EC) (pH is adjusted to 7.4). The recordings were made using an Axopatch 200B amplifier, a Digidata 1322A (Axon instruments, Foster city, USA). Data were acquired using the pCLAMP software sampled at 10 kHz, filtered at 2-10 kHz and analyzed with Clampfit (versions 9.0, both from Axon instruments, Foster city, USA). No higher series resistance than 20 MΩ between pipette and cell membrane was accepted. No series resistance compensation was used. The stability of series resistance was monitored repeatedly from the time course of capacitative transients during the experiments. The measured liquid-junction potential between EC and IC was subtracted in all data presented. An experiments were performed at room temperature (21-23° C.).\n(§6) All steroids were dissolved to the concentration of 6 mM in DMSO. […] End solutions were the solutions added into the wells of the chip.\n(§7) Electrophysiology: After compensating for the liquid junction potential a steady holding potential of −17 mV was used in all experiments. […] By using the holding potential of −17 mV and the intracellular solution with low chloride ion concentration the chloride ions flux into the cell when the receptors were activated.\nThe DYNAFLOW™ system allowed application of solutions for as short as 40 ms up to minutes in time.\nIn the experiments, THDOC and 3alpha-OH-adiol were used as the positive GABAA receptor modulating steroids.\n(§8) Different incubation times were studied to achieve the optimal time for attain stable results and minimize the washout time.\n(§9) Biological evaluation—HEK-293 cells, permanently transfected with human alpha1,beta,gamma and alpha4,beta,delta GABAA receptor subtypes and expressing these GABAA receptors.\n(§10) Cell lines permanently expressing a functional human GABAA receptor was made in following steps. The GABAA receptor subunits alpha1,beta2,gamma2L or alpha4,beta3,delta including introduced Kozac sequences just before the start codons were subcloned into mammalian expression vectors containing Geneticin, Hygromycin B, and Zeocin resistance, respectively. A HEK-293 cell line stably expressing the three GABAA receptor subunits was produced by transfection of the subunits one at a time."}, "[3]": {"biological_target": "T2, human alpha4,beta3,delta GABAA receptor (Homo sapiens, UniProt P28472+P48169)", "T2 construct": "expressed in transfected cells", "T2 sequence (P48169 36-554)": "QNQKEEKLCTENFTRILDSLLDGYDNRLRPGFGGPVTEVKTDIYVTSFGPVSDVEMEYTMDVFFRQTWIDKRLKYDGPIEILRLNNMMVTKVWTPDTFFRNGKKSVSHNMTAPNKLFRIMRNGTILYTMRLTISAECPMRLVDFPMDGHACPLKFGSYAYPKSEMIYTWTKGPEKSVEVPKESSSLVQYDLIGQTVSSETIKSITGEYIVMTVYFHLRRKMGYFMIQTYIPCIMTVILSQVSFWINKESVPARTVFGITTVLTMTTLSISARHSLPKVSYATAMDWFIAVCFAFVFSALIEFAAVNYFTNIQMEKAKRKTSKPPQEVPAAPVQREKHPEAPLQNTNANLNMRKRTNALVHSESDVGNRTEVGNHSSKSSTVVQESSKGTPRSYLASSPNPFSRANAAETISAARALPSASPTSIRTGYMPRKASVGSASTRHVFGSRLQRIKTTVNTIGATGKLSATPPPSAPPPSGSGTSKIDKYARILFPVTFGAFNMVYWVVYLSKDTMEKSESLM", "T2 sequence (P28472 26-473)": "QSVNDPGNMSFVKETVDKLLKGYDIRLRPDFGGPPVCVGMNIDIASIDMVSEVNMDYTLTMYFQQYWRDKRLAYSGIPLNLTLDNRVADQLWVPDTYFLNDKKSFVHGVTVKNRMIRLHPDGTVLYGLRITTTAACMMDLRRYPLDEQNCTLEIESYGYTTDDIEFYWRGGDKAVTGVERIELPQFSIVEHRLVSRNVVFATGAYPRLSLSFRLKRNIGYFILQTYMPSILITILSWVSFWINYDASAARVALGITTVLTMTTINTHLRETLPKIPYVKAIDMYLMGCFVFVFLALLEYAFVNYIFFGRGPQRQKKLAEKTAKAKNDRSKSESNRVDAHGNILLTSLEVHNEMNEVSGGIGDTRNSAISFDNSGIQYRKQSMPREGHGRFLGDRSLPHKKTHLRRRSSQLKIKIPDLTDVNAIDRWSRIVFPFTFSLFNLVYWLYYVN", "T2 sequence (O14764 17-452 partner limits assumed)": "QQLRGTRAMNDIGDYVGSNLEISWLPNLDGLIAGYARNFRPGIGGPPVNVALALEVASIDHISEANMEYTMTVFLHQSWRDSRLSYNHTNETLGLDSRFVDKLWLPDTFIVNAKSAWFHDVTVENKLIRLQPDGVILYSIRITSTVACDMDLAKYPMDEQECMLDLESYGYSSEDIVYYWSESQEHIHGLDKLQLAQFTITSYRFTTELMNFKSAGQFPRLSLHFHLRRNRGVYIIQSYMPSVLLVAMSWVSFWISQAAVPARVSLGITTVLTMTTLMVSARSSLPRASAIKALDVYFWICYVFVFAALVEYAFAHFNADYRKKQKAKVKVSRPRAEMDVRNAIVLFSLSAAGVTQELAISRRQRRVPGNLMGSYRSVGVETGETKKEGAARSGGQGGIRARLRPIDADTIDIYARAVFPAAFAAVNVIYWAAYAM", "experiment": "Patch-clamp (Dynaflow) current response in HEK-293 cells expressing the human alpha4,beta3,delta GABAA receptor", "type": "cell-based", "description": "as §1, §2, §3, §4, §5, §6, §7\nThe DYNAFLOW™ system allowed application of solutions for as short as 40 ms up to minutes in time. […] Therefore, the first GABA application was always repeated twice and the second response was used in the analysis.\nWashout: GABA is quite soluble in water and easy to washout from the receptor. […] Steroids on the other hand were difficult to dissolve in water and also difficult to washout from the receptor. In the experiments, THDOC and 3alpha-OH-adiol were used as the positive GABAA receptor modulating steroids. With 2 minutes washout time, 200 nM THDOC and 3alpha-OH-adiol was completely washed out as shown by neither an accumulative nor a desensitization effect.\nas §8, §9\nas §10, with “A HEK-293 cell line stably expressing the three GABAA receptor subunits was produced by transfection of the subunits one at a time.” left out"}, "[4]": {"details": "HEK293, read-out: Emax, androstandiol enhancement of GABA mediated current"}, "[5]": {"details": "listed as 3beta-hydroxy-5alpha-pregnan-20-one"}}, "data": [{"smiles": "CCO", "note": "[Alcohol]", "values": [{"measurement": "Reduction in tremor scores", "setting": "[1]; only during a short period (30 minutes) with a rebound later", "result": 50, "unit": "%"}]}, {"smiles": "C[C@]12CC[C@@H](O)C[C@@H]1CC[C@@H]1[C@@H]2CC[C@]2(C)C(O)CC[C@@H]12", "note": "(stereo partly drawn) [Androstandiol, 3alpha-hydroxy-5alpha-androstan-17-ol]", "values": [{"measurement": "Androstandiol effect by itself (baseline shift), current response in absence of GABA", "setting": "[2]; 3 μM androstandiol, Mean ± SEM", "result": "+8 ± 3.6 pA"}, {"measurement": "Androstandiol effect by itself (baseline shift), current response in absence of GABA", "setting": "[2]; 8 μM androstandiol, Mean ± SEM", "result": "+13 ± 2.3 pA"}, {"measurement": "Androstandiol effect by itself (baseline shift), current response in absence of GABA", "setting": "[2]; 10 μM androstandiol, Mean ± SEM", "result": "+11 ± 1.5 pA"}, {"measurement": "Androstandiol effect by itself (baseline shift), current response in absence of GABA", "setting": "[2]; 30 μM androstandiol, Mean ± SEM", "result": "+24 ± 6.8 pA"}, {"measurement": "Androstandiol effect by itself (baseline shift), current response in absence of GABA", "setting": "[2]; 100 μM androstandiol, Mean ± SEM", "result": "+43 ± 5.7 pA"}, {"measurement": "Emax", "setting": "[2]; [4]", "result": 281, "unit": "%"}, {"measurement": "Potency relative to THDOC in enhancing the effect of GABA (less potent)", "setting": "[2]; androstandiol vs THDOC", "result": 48, "unit": "times"}, {"measurement": "Potency at alpha4,beta3,delta relative to alpha1,beta2,gamma2 (higher)", "setting": "[3]; 0.38 μM vs. 3.4 μM", "result": 10, "unit": "times"}, {"measurement": "Androstandiol baseline shift, current response in absence of GABA", "setting": "[3]; 3 μM androstandiol, no GABA, Mean ± SEM", "result": "+8 ± 3.6 pA"}, {"measurement": "Androstandiol baseline shift, current response in absence of GABA", "setting": "[3]; 10 μM androstandiol, no GABA, Mean ± SEM", "result": "+13 ± 4.8 pA"}, {"measurement": "Emax", "setting": "[3]; [4]", "result": 142, "unit": "%"}]}, {"smiles": "CCC1(c2ccccc2)C(=O)NCNC1=O", "note": "[Primidone, primidone]", "values": [{"measurement": "Reduction of tremor scores", "setting": "[1]", "result": "35-50%"}]}, {"smiles": "C[C@]12CC[C@@H](O)C[C@H]1CC[C@@H]1[C@@H]2CC[C@]2(C)[C@@H](C(=O)CO)CC[C@@H]12", "note": "[THDOC, Tetrahydrodeoxycorticosterone]", "values": [{"measurement": "Imax/Emax, THDOC enhancement of GABA mediated current", "setting": "[2]; 0.03-1 μM THDOC + 30 μM GABA, control 30 μM GABA set to 0", "result": "+115%"}, {"measurement": "THDOC baseline shift, current response in absence of GABA", "setting": "[3]; 0.03 μM THDOC, no GABA, Mean ± SEM", "result": "+5 ± 3.3 pA"}, {"measurement": "THDOC baseline shift, current response in absence of GABA", "setting": "[3]; 0.1 μM THDOC, no GABA, Mean ± SEM", "result": "+15 ± 9.5 pA"}, {"measurement": "THDOC baseline shift, current response in absence of GABA", "setting": "[3]; 0.3 μM THDOC, no GABA, Mean ± SEM", "result": "+12 ± 7.9 pA"}, {"measurement": "THDOC baseline shift, current response in absence of GABA", "setting": "[3]; 1 μM THDOC, no GABA, Mean ± SEM", "result": "+69 ± 35 pA"}, {"measurement": "Emax, THDOC enhancement of GABA mediated current", "setting": "[3]; 3 μM GABA", "result": 297, "unit": "%"}, {"measurement": "EC50", "setting": "[3]; read-out: EC50, THDOC enhancement of GABA mediated current, 3 μM GABA", "result": 47, "unit": "nM"}]}, {"smiles": "CC(=O)[C@H]1CC[C@H]2[C@@H]3CC[C@H]4C[C@@H](O)CC[C@]4(C)[C@H]3CC[C@]12C", "note": "[UC1010, 3beta-hydroxy-5alpha-pregnan-20-one]", "values": [{"measurement": "Antagonism of THDOC enhanced GABA effect, single dose", "setting": "[2]", "result": "−21 ± 4.6", "unit": "%"}, {"measurement": "Antagonism of THDOC enhanced GABA effect, single dose", "setting": "[2]; [5]", "result": "−22.3±5.3", "unit": "%"}, {"measurement": "Modulatory effect of UC1010 on GABA response", "setting": "[2]; 1 μM UC1010 + 30 μM GABA, vs GABA alone, NS, n=9", "result": "10.3±7.8", "unit": "%"}, {"measurement": "Effect of 1 μM UC1010 on 8 μM Androstandiol + 30 μM GABA", "setting": "[2]; 1 μM UC1010, steady state (phasic effect), Mean ± SEM", "result": "−30 ± 1.7", "unit": "%"}, {"measurement": "Effect of 1 μM UC1010 on 8 μM Androstandiol, baseline shift", "setting": "[2]; 1 μM UC1010, tonic effect without GABA, Mean ± SEM", "result": "−33 ± 7.6", "unit": "%"}, {"measurement": "Imax, maximal antagonism of THDOC effect in concentration-dependent experiment", "setting": "[2]", "result": "−21", "unit": "%"}, {"measurement": "Imax, maximal antagonism of THDOC effect in concentration-dependent experiment", "setting": "[2]; [5]", "result": "−21±4.6", "unit": "%"}, {"measurement": "Effect of 1 μM UC1010 on 3 μM GABA response", "setting": "[3]; 1 μM UC1010, 3 μM GABA, Mean ± SEM, N=11, NS", "result": "−6.7 ± 3.3", "unit": "%"}, {"measurement": "Effect of 1 μM UC1010 on 0.6 μM Androstandiol + 3 μM GABA", "setting": "[3]; 1 μM UC1010, Mean ± SEM", "result": "−18 ± 2.0", "unit": "%"}, {"measurement": "Effect of 1 μM UC1010 on 0.8 μM Androstandiol + 3 μM GABA", "setting": "[3]; 1 μM UC1010, Mean ± SEM", "result": "−22 ± 2.6", "unit": "%"}, {"measurement": "Effect of 1 μM UC1010 on 0.1 μM THDOC alone baseline", "setting": "[3]; 1 μM UC1010, THDOC induced baseline shift without GABA, Mean ± SEM", "result": "−43 ± 3.5", "unit": "%"}, {"measurement": "Effect of UC1010 on GABA-mediated current response, GABA alone (in words)", "setting": "[3]; 1 μM UC1010, data not shown", "result": "without any significant effect"}, {"measurement": "Effect of 1 μM UC1010 on 0.1 μM THDOC + 3 μM GABA", "setting": "[3]; 1 μM UC1010, steady state, Mean ± SEM", "result": "−26 ± 2.4", "unit": "%"}, {"measurement": "Effect of the compound by itself, current response", "setting": "[3]; 1 μM, no GABA, no THDOC, N=11, NS vs EC solution", "result": "−0.4±0.3", "unit": "pA"}]}, {"smiles": "Cc1nnc2n1-c1ccc(Cl)cc1C(c1ccccc1)=NC2", "note": "[alprazolam]", "values": [{"measurement": "Reduction of tremor scores", "setting": "[1]", "result": 25, "unit": "%"}]}]}
